Test results published in US8133909B2 (Hoffmann-La Roche Inc., priority 2008, dated 2012).

Molecular target: T1, human orexin-2 (hOX2) receptors (Homo sapiens, UniProt O43614)
T1 construct: expressed in transfected cells
T1 sequence (O43614 1-444): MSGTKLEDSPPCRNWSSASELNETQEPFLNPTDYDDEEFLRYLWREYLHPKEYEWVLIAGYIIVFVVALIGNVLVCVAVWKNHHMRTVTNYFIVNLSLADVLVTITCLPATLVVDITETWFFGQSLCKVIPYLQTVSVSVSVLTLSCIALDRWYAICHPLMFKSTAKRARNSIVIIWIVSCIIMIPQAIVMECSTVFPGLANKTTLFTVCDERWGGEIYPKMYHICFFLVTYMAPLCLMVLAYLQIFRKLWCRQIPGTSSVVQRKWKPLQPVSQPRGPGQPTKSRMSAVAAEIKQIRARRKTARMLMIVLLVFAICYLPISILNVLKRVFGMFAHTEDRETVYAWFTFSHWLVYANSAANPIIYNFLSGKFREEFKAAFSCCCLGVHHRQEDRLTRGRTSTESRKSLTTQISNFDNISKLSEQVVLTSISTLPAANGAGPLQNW
Experiment: Intracellular Ca2+ mobilization assay (FLIPR), antagonism of orexin-A
Assay type: cell-based
Conditions: CHO(dHFr-) cells stably expressing hOX2; orexin-A at EC80 as agonist; antagonist applied 25 min before; Kb=IC50/(1+[A]/EC50); read-out: Kb (μM) OX2R (human)
Method: Intracellular Ca^2+ Mobilization Assay
The Chinese Hamster Ovary (dHFr—) mutant cell line stably expressing human orexin-1 (hOX1) or human orexin-2 (hOX2) receptors were maintained in Dulbecco's Modified Eagle Medium (1X) with GlutaMax™ 1, 4500 mg/L D-Glucose and Sodium Pyruvate (Catalog No. 31966-021, Invitrogen, Carlsbad, Calif.), 5% dialyzed fetal calf serum (Catalog No. 26400-044), 100 μg/ml penicillin and 100 μg/ml streptomycin. The cells were seeded at 5×10^4 cells/well in the poly-D-lysine treated, 96-well, black/clear-bottomed plates (Catalog No. BD356640, BD Biosciences, Palo Alto, Calif.). 24 h later, the cells were loaded for 1 h at 37° C. with 4 μM Flou-4 acetoxymethyl ester (Catalog No. F-14202, Molecular Probes, Eugene, Oreg.) in FLIPR buffer (1×HBSS, 20 mM HEPES, 2.5 mM Probenecid). Hanks' Balanced Salt Solution (HBSS) (10×) (catalog No. 14065-049) and HEPES (1M) (catalog No. 15630-056) were purchased from Invitrogen, Carlsbad, Calif. Probenecid (250 mM) (catalog No. P8761) was from Sigma, Buchs, Switzerland. The cells were washed five times with FLIPR buffer to remove excess dye and intracellular calcium mobilization, [Ca^2+]i were measured using a Fluorometric Imaging Plate Reader (FLIPR-96, Molecular Devices, Menlo Park, Calif.) as described previously (Malherbe et al., Mol. Pharmacol., 64, 823-832, 2003). Orexin A (catalog No. 1455, Toris Cookson Ltd, Bristol, UK) was used as agonist. Orexin A (50 mM stock solution in DMSO) was diluted in FLIPR buffer +0.1% BSA. The EC50 and EC80 values of orexin-A were measured daily from standard agonist concentration-response curves in CHO(dHFr—)—OX1R and —OX2R cell lines. All compounds were dissolved in 100% DMSO. Inhibition curves were determined by addition of 11 concentrations (0.0001-10 μM) of inhibitory compounds and using EC80 value of orexin-A as agonist (a concentration which gave 80% of max agonist response, determined daily). The antagonists were applied 25 min (incubation at 37° C.) before the application of the agonist. Responses were measured as peak increase in fluorescence minus basal, normalized to the maximal stimulatory effect induced by EC80 value of orexin-A or orexin- B. Inhibition curves were fitted according to the Hill equation: y=100/(1+(x/IC50)^nH), where nH=slope factor using Excel-fit 4 software (Microsoft). Kb values were calculated according to the following equation Kb=IC50/(1+[A]/EC50) where A is the concentration of agonist added which is very close to agonist EC80 value, and IC50 and EC50 values were derived from the antagonist inhibition and orexin-A or B agonist curves, respectively.

Row | Structure (SMILES) | Kb [µM]
1 | Cc1ccc(N(CCc2ccc(C(F)(F)F)nc2)C(=O)C(C)(O)c2ccccc2)cc1C (racemic) [Example 27, (R,S)—N-(3,4-Dimethyl-phenyl)-2-hydroxy-2-phenyl-N-[2-(6-trifluoromethyl-pyridin-3-yl)-ethyl]-propionamide] | 0.068
2 | Cc1ccc(CCN(C(=O)C(N)c2ccc(Cl)cc2)c2sc(C)nc2C)cc1 (racemic) [Example 32, (R,S)-2-Amino-2-(4-chloro-phenyl)-N-(2,4-dimethyl-thiazol-5-yl)-N-(2-p-tolyl-ethyl)-acetamide] | 0.0943
3 | COc1ccc(N(CCc2ccc(C(F)(F)F)cc2)C(=O)C(N)c2ccccc2)cn1 (racemic) [Example 36, (R,S)-2-Amino-N-(6-methoxy-pyridin-3-yl)-2-phenyl-N-[2-(4-trifluoromethyl-phenyl)-ethyl]-acetamide] | 0.061
4 | Cc1cc(N(CCc2ccc(C(F)(F)F)cc2)C(=O)C(N)c2ccc(Cl)cc2)n(C)n1 (racemic) [Example 39, (R,S)-2-Amino-2-(4-chloro-phenyl)-N-(2,5-dimethyl-2H-pyrazol-3-yl)-N-[2-(4-trifluoromethyl-phenyl)-ethyl]-acetamide] | 0.0439
5 | Cc1cc(N(CCc2ccc(C(F)(F)F)cc2)C(=O)C(O)c2ccccc2)n(C)n1 (racemic) [Example 42, (R,S)—N-(2,5-Dimethyl-2H-pyrazol-3-yl)-2-hydroxy-2-phenyl-N-[2-(4-trifluoromethyl-phenyl)-ethyl]-acetamide] | 0.0785
6 | Cn1ccc2ccc(N(CCc3ccc(C(F)(F)F)cn3)C(=O)C(O)c3ccc(F)cc3)cc21 (racemic) [Example 54, (R,S)-2-(4-Fluoro-phenyl)-2-hydroxy-N-(1-methyl-1H-indol-6-yl)-N-[2-(5-trifluoromethyl-pyridin-2-yl)-ethyl]-acetamide] | 0.0078
7 | O=C([C@H](O)c1ccc(F)cc1)N(CCc1ccc(C(F)(F)F)cn1)c1ccc2c(c1)CCC2 (racemic) [Example 73, (R,S)-2-(4-Fluoro-phenyl)-2-hydroxy-N-indan-5-yl-N-[2-(5-trifluoromethyl-pyridin-2-yl)-ethyl]-acetamide] | 0.0313
8 | O=C(C(O)c1ccc(F)cc1)N(CCc1ccc(C(F)(F)F)cn1)c1ccc2c(c1)CCO2 (racemic) [Example 75, (R,S)—N-(2,3-Dihydro-benzofuran-5-yl)-2-(4-fluoro-phenyl)-2-hydroxy-N-[2-(5-trifluoromethyl-pyridin-2-yl)-ethyl]-acetamide] | 0.013
9 | COc1cccc(N(CCc2ccc(C(F)(F)F)cn2)C(=O)C(O)c2ccc(F)cc2)c1 (racemic) [Example 76, (R,S)-2-(4-Fluoro-phenyl)-2-hydroxy-N-(3-methoxy-phenyl)-N-[2-(5-trifluoromethyl-pyridin-2-yl)-ethyl]-acetamide] | 0.026
10 | Cc1cc(N(CCc2ccc(C(F)(F)F)cn2)C(=O)C(O)c2ccc(F)cc2)ccc1F (racemic) [Example 77, (R,S)—N-(4-Fluoro-3-methyl-phenyl)-2-(4-fluoro-phenyl)-2-hydroxy-N-[2-(5-trifluoromethyl-pyridin-2-yl)-ethyl]-acetamide] | 0.0075
11 | Cc1ccc(N(CCc2ccc(C(F)(F)F)cn2)C(=O)C(O)c2ccc(F)cc2)cc1F (racemic) [Example 78, (R,S)—N-(3-Fluoro-4-methyl-phenyl)-2-(4-fluoro-phenyl)-2-hydroxy-N-[2-(5-trifluoromethyl-pyridin-2-yl)-ethyl]-acetamide] | 0.0481
12 | COc1cc(N(CCc2ccc(C(F)(F)F)cn2)C(=O)C(O)c2ccc(F)cc2)ccc1Cl (racemic) [Example 79, (R,S)—N-(4-Chloro-3-methoxy-phenyl)-2-(4-fluoro-phenyl)-2-hydroxy-N-[2-(5-trifluoromethyl-pyridin-2-yl)-ethyl]-acetamide] | 0.0236
13 | COc1cc(N(CCc2ccc(C(F)(F)F)cn2)C(=O)C(O)c2ccc(F)cc2)ccc1F (racemic) [Example 88, (R,S)—N-(4-Fluoro-3-methoxy-phenyl)-2-(4-fluoro-phenyl)-2-hydroxy-N-[2-(5-trifluoromethyl-pyridin-2-yl)-ethyl]-acetamide] | 0.0106
14 | O=C(C(O)c1ccc(F)cc1)N(CCc1ccc(C(F)(F)F)cn1)c1ccc(F)c(CO)c1 (racemic) [Example 90, (R,S)—N-(4-Fluoro-3-hydroxymethyl-phenyl)-2-(4-fluoro-phenyl)-2-hydroxy-N-[2-(5-trifluoromethyl-pyridin-2-yl)-ethyl]-acetamide] | 0.0438
15 | COc1ccc(N(CCc2ccc(C(F)(F)F)cn2)C(=O)C(O)c2ccc(F)cc2)cc1C (racemic) [Example 93, (R,S)-2-(4-Fluoro-phenyl)-2-hydroxy-N-(4-methoxy-3-methyl-phenyl)-N-[2-(5-trifluoromethyl-pyridin-2-yl)-ethyl]-acetamide] | 0.0146
16 | Cc1ccc(N(CCc2ccc(C(F)(F)F)cn2)C(=O)C(O)c2ccc(F)cc2)cc1OC(F)F (racemic) [Example 95, (R,S)-N-(3-Difluoromethoxy-4-methyl-phenyl)-2-(4-fluoro-phenyl)-2-hydroxy-N-[2-(5-trifluoromethyl-pyridin-2-yl)-ethyl]-acetamide] | 0.0195
17 | O=C(C(O)c1ccc(F)cc1)N(CCc1ccc(C(F)(F)F)cn1)c1ccc(OC(F)F)c(OC(F)F)c1 (racemic) [Example 96, (R,S)—N-(3,4-Bis-difluoromethoxy-phenyl)-2-(4-fluoro-phenyl)-2-hydroxy-N-[2-(5-trifluoromethyl-pyridin-2-yl)-ethyl]-acetamide] | 0.0216
18 | CCc1cc(N(CCc2ccc(C(F)(F)F)cn2)C(=O)C(O)c2ccc(F)cc2)ccc1Cl (racemic) [Example 97, (R,S)-N-(4-Chloro-3-ethyl-phenyl)-2-(4-fluoro-phenyl)-2-hydroxy-N-[2-(5-trifluoromethyl-pyridin-2-yl)-ethyl]-acetamide] | 0.0276
19 | O=C(C(O)c1ccc(F)cc1)N(CCc1ccc(C(F)(F)F)cn1)c1ccc(Cl)c(CO)c1 (racemic) [Example 98, (R,S)—N-(4-Chloro-3-hydroxymethyl-phenyl)-2-(4-fluoro-phenyl)-2-hydroxy-N-[2-(5-trifluoromethyl-pyridin-2-yl)-ethyl]-acetamide] | 0.0216
20 | COC(=O)c1cc(N(CCc2ccc(C(F)(F)F)cn2)C(=O)C(O)c2ccc(F)cc2)ccc1Cl (racemic) [Example 99, (R,S)-2-Chloro-5-{[2-(4-fluoro-phenyl)-2-hydroxy-acetyl]-[2-(5-trifluoromethyl-pyridin-2-yl)-ethyl]-amino}-benzoic acid methyl ester] | 0.0285
21 | O=C(C(O)c1ccc(F)cc1)N(CCc1ccc(C(F)(F)F)cn1)c1ccc(Cl)c(OC2CC2)c1 (racemic) [Example 103, (R,S)—N-(4-Chloro-3-cyclopropoxy-phenyl)-2-(4-fluoro-phenyl)-2-hydroxy-N-[2-(5-trifluoromethyl-pyridin-2-yl)-ethyl]-acetamide] | 0.0239
22 | O=C([C@@H](O)c1ccc(F)cc1)N(CCc1ccc(C(F)(F)F)nc1)c1ccc2c(c1)C(O)CCO2 (single isomer, unassigned) [Example 101, (S)-2-(4-Fluoro-phenyl)-2-hydroxy-N—((R or S)-4-hydroxy-chroman-6-yl)-N-[2-(6-trifluoromethyl-pyridin-3-yl)-ethyl]-acetamide] | 0.0116
23 | O=C([C@@H](O)c1ccc(F)cc1)N(CCc1ccc(C(F)(F)F)nc1)c1ccc2c(c1)C(O)CCO2 (single isomer, unassigned) [Example 102, (S)-2-(4-Fluoro-phenyl)-2-hydroxy-N-((S or R)-4-hydroxy-chroman-6-yl)-N-[2-(6-trifluoromethyl-pyridin-3-yl)-ethyl]-acetamide] | 0.0116
